Measurements from ChEMBL document CHEMBL4418268, “Nitrogen-containing heterocyclic compound” (2018).

System: HUVEC
Experiment: Inhibition of TNF-alpha-induced CXCL10 production in HUVEC cells at 0.1 uM incubated for 1 hr followed by TNF-alpha addition and measured after 72 hrs by ELISA relative to control
Assay type: functional
Conditions: Homo sapiens

| SMILES | inhibition at 0.1 µM |
| --- | --- |
| CCn1c(=O)cc(N2CCOCC2)c2cc(-n3c(-c4ccccc4)cn(C(C)C)c3=O)ccc21 | ≥ 50% |
| CCn1c(=O)cc(N2CCOCC2)c2cc(-n3c(-c4ccccc4)cn(CCN4CCOCC4)c3=O)ccc21 | ≥ 50% |
| CCn1c(=O)cc(C2CC2)c2cc(N3C(=O)C(C)C(=O)N3c3ccccc3)ccc21 (stereo unspecified) | ≥ 50% |
| CCn1c(=O)cc(C)c2cc(-c3cccnc3-c3ccccc3)ccc21 | ≥ 50% |
| CCn1c(=O)cc(C2CC2)c2cc(-n3c(=O)cc(C)n3-c3ccccc3)ccc21 | ≥ 50% |
| CCn1c(=O)cc(C2CCN(C(C)=O)CC2)c2cc(C(=O)N(C)c3ccc(C)cc3)ccc21 | ≥ 50% |
| CCn1c(=O)cc(C2CC2)c2cc(N3C(=O)CC[C@H]3c3ccccc3)ccc21 | ≥ 50% |
| CCn1c(=O)cc(C2CC2)c2cc(-n3c(-c4ccc(C(F)(F)F)cc4)c[nH]c3=O)ccc21 | ≥ 50% |
| CCn1c(=O)cc(C2CCN(C)CC2)c2cc(C(=O)N3CCCc4ccccc43)ccc21 | ≥ 50% |
| CCn1c(=O)cc(C2CC2)c2cc(N(C)C(=O)c3ccccc3)ccc21 | ≥ 50% |
| CCn1c(=O)cc(N2CCOCC2)c2cc(-n3c(-c4ccccc4)c[nH]c3=O)ccc21 | ≥ 50% |
| CCn1c(=O)cc(C2CCN(C)CC2)c2cc(C(=O)N(C)c3ccc(C)c(C)c3)ccc21 | ≥ 50% |
| CCn1c(=O)cc(C2CC2)c2cc(-n3c(-c4ccc(Cl)cc4)cn(C)c3=O)ccc21 | ≥ 50% |
| CCn1c(=O)cc(C2CC2)c2cc(-n3c(-c4ccc(C)cc4)cn(C)c3=O)ccc21 | ≥ 50% |
| CCn1c(=O)cc(C2CC2)c2cc(-n3c(-c4ccc(C)cc4)c[nH]c3=O)ccc21 | ≥ 50% |
| CCn1c(=O)cc(N2CCOCC2)c2cc(-n3c(-c4ccc(C(F)(F)F)cc4)cn(C)c3=O)ccc21 | ≥ 50% |
| CCn1c(=O)cc(N2CCOCC2)c2cc(-n3c(-c4ccccc4)cn(CCO)c3=O)ccc21 | ≥ 50% |
| CCn1c(=O)cc(N2CCOCC2)c2cc(-n3c(-c4ccccc4)cn(CCN(C)C)c3=O)ccc21 | ≥ 50% |
| CCn1c(=O)cc(C2CCN(C)CC2)c2cc(C(=O)N(C)c3ccc(C)c(F)c3)ccc21 | ≥ 50% |
| CCn1c(=O)cc(N2CCOCC2)c2cc(-c3cccnc3-c3ccccc3)ccc21 | ≥ 50% |
| CCN1CCC(c2cc(=O)n(CC)c3ccc(C(=O)N(C)c4ccccc4)cc23)CC1 | ≥ 50% |
| CCn1c(=O)cc(N2CCOCC2)c2cc(-n3c(-c4ccc(Cl)cc4)cn(C)c3=O)ccc21 | ≥ 50% |
| CCn1c(=O)cc(C2CCC(O)CC2)c2cc(C(=O)N(C)c3ccc(Cl)cc3)ccc21 (stereo unspecified) | ≥ 50% |
| CCC1C(=O)N(c2ccccc2)N(c2ccc3c(c2)c(C2CC2)cc(=O)n3CC)C1=O (stereo unspecified) | ≥ 50% |
| CCn1c(=O)cc(N2CCOCC2)c2cc(-n3c(-c4ccc(C)cc4)cn(C)c3=O)ccc21 | ≥ 50% |
| CCn1c(=O)cc(C2CC2)c2cc(-n3c(C)cc(=O)n3-c3ccccc3)ccc21 | ≥ 50% |

| SMILES | inhibition at 0.1 µM |
| --- | --- |
| CCn1c(=O)cc(N2CCOCC2)c2cc(-c3ccccc3-c3ccccc3)ccc21 | ≥ 50% |
| CCn1c(=O)cc(C2CC2)c2cc(-c3cccnc3-c3ccccc3)ccc21 | ≥ 50% |
| CCn1c(=O)cc(C2CC2)c2cc(-n3c(=O)[nH]c(=O)n3-c3ccccc3)ccc21 | ≥ 50% |
| CCn1c(=O)cc(N2CCOCC2)c2cc(-c3nccn3-c3ccccc3)ccc21 | ≥ 50% |
| CCn1c(=O)cc(C2CC2)c2cc(-n3c(-c4ccc(C(F)(F)F)cc4)cn(C)c3=O)ccc21 | ≥ 50% |
| CCn1c(=O)cc(C2CC2)c2cc(-n3c(-c4ccc(Cl)cc4)c[nH]c3=O)ccc21 | ≥ 50% |
| CCn1c(=O)cc(N2CCOCC2)c2cc(N(C)C(=O)c3ccc(Cl)cc3)ccc21 | ≥ 50% |
| CCn1c(=O)cc(C(C)C)c2cc(N(C)C(=O)c3ccc(Cl)cc3)ccc21 | ≥ 50% |
| CCCCn1cc(-c2ccccc2)n(-c2ccc3c(c2)c(N2CCOCC2)cc(=O)n3CC)c1=O | ≥ 50% |
| CCn1c(=O)cc(N2CCOCC2)c2cc(-n3ccnc3-c3ccccc3)ccc21 | ≥ 50% |
| CCn1c(=O)cc(C2CCN(C)CC2)c2cc(C(=O)N(C)c3ccc4c(c3)CCC4)ccc21 | ≥ 50% |
| CCn1c(=O)cc(N2CCOCC2)c2cc(-n3c(-c4ccc(C)cc4)c[nH]c3=O)ccc21 | ≥ 50% |
| CCn1c(=O)cc(N2CCOCC2)c2cc(-n3c(-c4ccc(Cl)cc4)c[nH]c3=O)ccc21 | ≥ 50% |
| CCn1c(=O)cc(N2CCOCC2)c2cc(-n3c(-c4ccccc4)cn(CCOC)c3=O)ccc21 | ≥ 50% |
| CCn1c(=O)cc(N2CCOCC2)c2cc(N3C(=O)CC[C@H]3c3ccccc3)ccc21 | ≥ 50% |
| CCn1c(=O)cc(N2CCOCC2)c2cc(-n3cc(C)nc3-c3ccccc3)ccc21 | ≥ 50% |
| CCn1c(=O)cc(C2CC2)c2cc(-c3nc(C)[nH]c3-c3ccccc3)ccc21 | ≥ 50% |
| CCn1c(=O)cc(C2CCN(C)CC2)c2cc(C(=O)N(C)c3ccc(C)c(Cl)c3)ccc21 | ≥ 50% |
| CCn1c(=O)cc(C2CCN(C)CC2)c2cc(C(=O)N(C)c3ccc(C)cc3)ccc21 | ≥ 50% |
| CCn1c(=O)cc(N2CCOCC2)c2cc(-n3c(-c4ccccc4)cn(CCN4CCCCC4)c3=O)ccc21 | ≥ 50% |
| CCn1c(=O)cc(C2CC2)c2cc(-c3nccnc3-c3ccccc3)ccc21 | ≥ 50% |
| CCn1c(=O)cc(N2CCOCC2)c2cc(-n3c(-c4ccc(C(F)(F)F)cc4)c[nH]c3=O)ccc21 | ≥ 50% |
| CCn1c(=O)cc(C2CC2)c2cc(-c3nc(C)nn3-c3ccccc3)ccc21 | ≥ 50% |
| CCn1cc(-c2ccccc2)n(-c2ccc3c(c2)c(N2CCOCC2)cc(=O)n3CC)c1=O | ≥ 50% |
| CCCn1cc(-c2ccccc2)n(-c2ccc3c(c2)c(N2CCOCC2)cc(=O)n3CC)c1=O | ≥ 50% |
